# Measurements as given in patent US7211422B2, “Polypeptide having α-isomaltosylglucosaccharide synthase activity” (Kabushiki Kaisha Hayashibara Seibutsu Kagaku Kenkyujo, priority 2001, dated 2007).
# How the values were obtained:
# [1] = test system: α-isomaltosylglucosaccharide-forming enzyme from Bacillus globisporus N75; experiment: Action on saccharides (TLC before and after enzymatic reaction); type: biochemical; parameters: key: −: it showed no change; +: it showed a slight reduction of the color spot of the substrate and the formation of other reaction product; ++: it showed a high reduction of the color spot of the substrate and the formationof other reaction product; +++: it showed a substantial disappearance of the substrate spot and the formation of other reaction product; details: two units/g substrate, substrate 2% (w/v), 30° C., pH 6.0, 24 hours
# Procedure: (§1) It was tested whether saccharides can be used as substrates for the polypeptide of α-isomaltosylglucosaccharide-forming enzyme of the present invention. For the purpose, a solution of maltose, maltotriose, maltotetraose, maltopentaose, maltohexaose, maltoheptaose, isomaltose, isomaltotriose, panose, isopanose, trehalose, kojibiose, nigerose, neotrehalose, cellobiose, gentibiose, maltitol, maltotriitol, lactose, sucrose, erlose, selaginose, maltosyl glucoside, or isomaltosyl glucoside was prepared.
# (§2) To each of the above solutions was added two units/g substrate of a purified polypeptide specimen of α-isomaltosylglucosaccharide-forming enzyme from either Bacillus globisporus C11 obtained by the method in Experiment 1-3, Bacillus globisporus N75 obtained by the method in Experiment 2-3, or Arthrobacter globiformis A19 obtained by the method in Experiment 3-3, and the resulting each solution was adjusted to give a substrate concentration of 2% (w/v) and incubated at 30° C. and pH 6.0, except for using pH 8.4 for the enzyme from Arthrobacter globiformis A19, for 24 hours. In order to analyze the saccharides in the reaction mixture before and after the enzymatic reaction, silica gel thin-layer chromatography (hereinafter, abbreviated as “TLC”) was carried out. After two-times development using, as a developer, a mixture solution of n-butanol, pyridine, and water (=6:4:1), and, as a thin-layer plate, “KIESELGEL 60”, an aluminum plate (20×20 cm) for TLC commercialized by Merck & Co., Inc., Rahway, USA, the saccharides in the reaction mixture were examined whether the enzyme acted or not by the coloration of sugars by the sulfuric acid-methanol method.
# [2] = test system: α-isomaltosylglucosaccharide-forming enzyme from Arthrobacter globiformis A19; experiment: as above; type: biochemical; parameters: key: −: it showed no change; +: it showed a slight reduction of the color spot of the substrate and the formation of other reaction product; ++: it showed a high reduction of the color spot of the substrate and the formationof other reaction product; +++: it showed a substantial disappearance of the substrate spot and the formation of other reaction product; details: two units/g substrate, substrate 2% (w/v), 30° C., pH 8.4, 24 hours
# Procedure: as §1, §2
# [3] = test system: α-isomaltosylglucosaccharide-forming enzyme from Bacillus globisporus C11; experiment: as above; type: biochemical; parameters: key: −: it showed no change; +: it showed a slight reduction of the color spot of the substrate and the formation of other reaction product; ++: it showed a high reduction of the color spot of the substrate and the formationof other reaction product; +++: it showed a substantial disappearance of the substrate spot and the formation of other reaction product; details: two units/g substrate, substrate 2% (w/v), 30° C., pH 6.0, 24 hours
# Procedure: as §1, §2
# [4] = test system: polypeptide having α-isomaltosylglucosaccharide-forming enzyme activity, obtained in Experiment 1-3; experiment: Reaction product from maltooligosaccharide (sugar composition by HPLC); type: biochemical, Bacillus globisporus C11; parameters: unit not given here; details: 1% (w/v) substrate, 35° C., pH 6.0, 8 hours; for Sugar composition of reaction mixture, substrate Maltopentaose: 0.1 unit/g-solid; for Sugar composition of reaction mixture, substrate Maltotetraose: 0.2 unit/g-solid; for Sugar composition of reaction mixture, substrate Maltotriose / Sugar composition of reaction mixture, substrate Mlatose: two units/g-solid
# Procedure: To an aqueous solution containing one percent (w/v) of maltose, maltotriose, maltotetraose, or maltopentaose as a substrate was added the polypeptide having α-isomaltosylglucosaccgaride-forming enzyme activity, obtained in Experiment 1-3, in an amount of two units/g-solid for maltose and maltotriose, 0.2 unit/g-solid for maltotetraose, and 0.1 unit/g-solid for maltopentaose, followed by incubation at 35° C. and pH 6.0 for 8 hours. After stopping the enzymatic reaction by a 10-minutes incubation, sugar compositions in the reaction mixture were measured by HPLC using “YMC Pack ODS-AQ303”, a column commercialized by YMC Co., Ltd., Tokyo, Japan, at a column temperature of 40° C. and a flow rate of 0.5 ml/minutes of water, and using as a detector “RI-8012”, a differential refractometer commercialized by Tosoh Corporation, Tokyo, Japan.
Molecule,"Enzyme action, N75 enzyme [1]","Enzyme action, A19 enzyme [2]","Enzyme action, C11 enzyme [3]","Sugar composition of reaction mixture, substrate Maltopentaose [4]","Sugar composition of reaction mixture, substrate Maltotetraose [4]","Sugar composition of reaction mixture, substrate Maltotriose [4]","Sugar composition of reaction mixture, substrate Mlatose [4]"
"O=C[C@H](O)[C@@H](O)[C@H](O[C@@H]1O[C@H](CO)[C@@H](O)[C@H](O)[C@H]1O)[C@H](O)CO [Cellobiose, cellobiose]",−,−,−,,,,
"OC[C@H]1O[C@@H](OC[C@H]2OC(O)[C@H](O)[C@@H](O)[C@@H]2O)[C@H](O)[C@@H](O)[C@@H]1O (stereo partly drawn) [Gentibiose, gentibiose]",−,−,−,,,,
"OC[C@H]1O[C@H](OC[C@H]2O[C@H](O[C@H]3[C@H](O)[C@@H](O)[C@@H](O[C@H]4[C@H](O)[C@@H](O)[C@@H](O)O[C@@H]4CO)O[C@@H]3CO)[C@H](O)[C@@H](O)[C@@H]2O)[C@H](O)[C@@H](O)[C@@H]1O [Glucosylmaltotriose, α-isomaltosylmaltose]",,,,0.0,6.8,31.5,2.4
"OC[C@H]1O[C@H](OC[C@H]2OC(O)[C@H](O)[C@@H](O)[C@@H]2O)[C@H](O)[C@@H](O)[C@@H]1O (stereo partly drawn) [Isomaltose, isomaltose]",−,−,−,0.0,0.0,0.0,0.5
"OC[C@H]1O[C@H](OC[C@H]2O[C@H](OC[C@H]3OC(O)[C@H](O)[C@@H](O)[C@@H]3O)[C@H](O)[C@@H](O)[C@@H]2O)[C@H](O)[C@@H](O)[C@@H]1O (stereo partly drawn) [Isomaltotriose, isomaltotriose]",−,−,−,,,,
"OC[C@H]1O[C@H](O[C@H]2[C@H](O)[C@@H](O)[C@@H](OC[C@H]3OC(O)[C@H](O)[C@@H](O)[C@@H]3O)O[C@@H]2CO)[C@H](O)[C@@H](O)[C@@H]1O (stereo partly drawn) [Isopanose, isopanose]",++,++,++,,,,
"OC[C@H]1O[C@@H](O[C@H]2[C@H](O)[C@@H](O)C(O)O[C@@H]2CO)[C@H](O)[C@@H](O)[C@H]1O (stereo partly drawn) [Lactose, lactose]",−,−,−,,,,
"OC[C@@H](O)[C@@H](O[C@H]1O[C@H](CO)[C@@H](O)[C@H](O)[C@H]1O)[C@H](O)[C@@H](O)CO [Maltitol, maltitol]",−,−,−,,,,
"OC[C@H]1O[C@H](O[C@H]2O[C@H](CO)[C@@H](O[C@H]3O[C@H](CO)[C@@H](O)[C@H](O)[C@H]3O)[C@H](O)[C@H]2O)[C@H](O)[C@@H](O)[C@@H]1O [Maltosyl glucoside, maltosyl glucoside]",++,++,++,,,,
"OC[C@H]1O[C@H](O[C@H]2[C@H](O)[C@@H](O)[C@@H](O[C@H]3[C@H](O)[C@@H](O)[C@@H](O[C@H]4[C@H](O)[C@@H](O)C(O)O[C@@H]4CO)O[C@@H]3CO)O[C@@H]2CO)[C@H](O)[C@@H](O)[C@@H]1O (stereo partly drawn) [Maltotetraose, maltotetraose]",+++,+++,+++,19.2,35.1,1.8,0.0
"OC[C@H]1O[C@H](OC[C@H]2O[C@H](O[C@H]3[C@H](O)[C@@H](O)C(O)O[C@@H]3CO)[C@H](O)[C@@H](O)[C@@H]2O)[C@H](O)[C@@H](O)[C@@H]1O (stereo partly drawn) [Panose, panose]",−,−,−,0.0,0.0,1.2,8.2
"OC[C@H]1O[C@H](O[C@H]2O[C@H](CO)[C@@H](O)[C@H](O)[C@H]2O[C@H]2O[C@H](CO)[C@@H](O)[C@H](O)[C@H]2O)[C@H](O)[C@@H](O)[C@@H]1O [Selaginose, selaginose]",−,−,−,,,,
"OC[C@H]1O[C@@](CO)(O[C@H]2O[C@H](CO)[C@@H](O)[C@H](O)[C@H]2O)[C@@H](O)[C@@H]1O [Sucrose, sucrose]",−,−,−,,,,
"OC[C@H]1O[C@H](O[C@H]2O[C@H](CO)[C@@H](O)[C@H](O)[C@H]2O)[C@H](O)[C@@H](O)[C@@H]1O [Trehalose, trehalose]",−,−,−,,,,
"OC[C@H]1O[C@H](OC[C@H]2O[C@H](O[C@H]3[C@H](O)[C@@H](O)[C@@H](O[C@H]4[C@H](O)[C@@H](O)[C@@H](O[C@H]5[C@H](O)[C@@H](O)C(O)O[C@@H]5CO)O[C@@H]4CO)O[C@@H]3CO)[C@H](O)[C@@H](O)[C@@H]2O)[C@H](O)[C@@H](O)[C@@H]1O (stereo partly drawn) [X, α-isomaltosylmaltotriose]",,,,11.4,30.0,2.1,0.0
"OC[C@H]1O[C@H](OC[C@H]2O[C@H](O[C@H]3[C@H](O)[C@@H](O)[C@@H](O[C@H]4[C@H](O)[C@@H](O)[C@@H](O[C@H]5[C@H](O)[C@@H](O)[C@@H](O[C@H]6[C@H](O)[C@@H](O)C(O)O[C@@H]6CO)O[C@@H]5CO)O[C@@H]4CO)O[C@@H]3CO)[C@H](O)[C@@H](O)[C@@H]2O)[C@H](O)[C@@H](O)[C@@H]1O (stereo partly drawn) [Y, α-isomaltosylmaltotetraose]",,,,26.8,1.4,0.0,0.0
isomaltosyl glucoside,−,−,−,,,,
maltoheptaose,+++,+++,+++,,,,
maltohexaose,+++,+++,+++,4.6,0.0,0.0,0.0
maltopentaose,+++,+++,+++,34.4,3.5,0.0,0.0
maltotriose,++,++,++,1.9,22.7,45.3,0.8
